Assay results reported in PubChem BioAssay AID258 (DTP/NCI, 2004).
Values joined by “and” are separate entries in the source; they are usually repeats but may differ in a detail not shown here. Identical values can stand only once. Toxic doses and inconclusive results are not listed. Rule for the calls: active = survival T/C of 150% or more; inactive = T/C below 125% in these data.

Test system: CD2F1 mice, L1210 leukemia sc, survival T/C
Assay: NCI In Vivo Anticancer Drug Screen. Data for tumor model L1210 Leukemia (subcutaneous) in CD2F1 (CDF1) mice
Conditions: higher = longer survival
Summary of the method: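 Compound given to mice bearing transplantable tumor. Survival or tumor size then recorded. Result expressed relative to vehicle-dosed control group as T/C.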

Measured: T/C

CN(Cc1cnc2nc(N)nc(N)c2n1)c1ccc(C(=O)N[C@@H](CCC(=O)O)C(=O)O)cc1
active: endpoint: mean survival time, dose: 1.08 mg/kg/injection, schedule: Q01DX009 (sc), vehicle: other 170 % of control | endpoint: mean survival time, dose: 1.8 mg/kg/injection, schedule: Q01DX009 (sc), vehicle: other 158 % of control | endpoint: mean survival time, dose: 3.0 mg/kg/injection, schedule: Q01DX009 (sc), vehicle: other 168 % of control | endpoint: median survival time, dose: 0.08 mg/kg/injection, schedule: Q## X Z (sc), vehicle: other 155 % of control | endpoint: median survival time, dose: 0.14 mg/kg/injection, schedule: Q## X Z (sc), vehicle: other 155 % of control | endpoint: median survival time, dose: 0.45 mg/kg/injection, schedule: Q#A X Z (sc), vehicle: other 159 % of control | endpoint: median survival time, dose: 0.62 mg/kg/injection, schedule: Q01DX Z (sc), vehicle: other 160 % of control | endpoint: median survival time, dose: 0.65 mg/kg/injection, schedule: Q01DX009 (sc), vehicle: other 152 % of control | endpoint: median survival time, dose: 0.65 mg/kg/injection, schedule: Q01DX009 (sc), vehicle: sodium bicarbonate 150 % of control | endpoint: median survival time, dose: 0.65 mg/kg/injection, schedule: Q#A X Z (sc), vehicle: other 161 % of control | endpoint: median survival time, dose: 0.75 mg/kg/injection, schedule: Q01DX Z (ip), vehicle: water 175 % of control | endpoint: median survival time, dose: 0.76 mg/kg/injection, schedule: Q#A X Z (oral), vehicle: other 150 % of control | endpoint: median survival time, dose: 1.08 mg/kg/injection, schedule: Q01DX009 (sc), vehicle: sodium bicarbonate 171 % of control | endpoint: median survival time, dose: 1.25 mg/kg/injection, schedule: Q01DX Z (sc), vehicle: other 180 % of control | endpoint: median survival time, dose: 1.26 mg/kg/injection, schedule: Q01DX Z (oral), vehicle: other 168 % of control and 181 % of control | endpoint: median survival time, dose: 1.26 mg/kg/injection, schedule: Q01DX Z (sc), vehicle: other 181 % of control | endpoint: median survival time, dose: 1.3 mg/kg/injection, schedule: Q01DX Z (oral), vehicle: other 166 % of control | endpoint: median survival time, dose: 1.4 mg/kg/injection, schedule: Q01DX Z (sc), vehicle: sodium bicarbonate 183 % of control | endpoint: median survival time, dose: 1.8 mg/kg/injection, schedule: Q01DX009 (sc), vehicle: other 161 % of control | endpoint: median survival time, dose: 1.8 mg/kg/injection, schedule: Q01DX009 (sc), vehicle: sodium bicarbonate 174 % of control and 177 % of control | endpoint: median survival time, dose: 1.8 mg/kg/injection, schedule: Q01DX Z (ip), vehicle: other 175 % of control | endpoint: median survival time, dose: 2.0 mg/kg/injection, schedule: Q01DX Z (sc), vehicle: other 175 % of control and 177 % of control and 183 % of control | endpoint: median survival time, dose: 2.08 mg/kg/injection, schedule: Q01DX Z (sc), vehicle: other 170 % of control | endpoint: median survival time, dose: 2.1 mg/kg/injection, schedule: Q01DX Z (oral), vehicle: other 163 % of control | endpoint: median survival time, dose: 2.1 mg/kg/injection, schedule: Q01DX Z (sc), vehicle: other 168 % of control | endpoint: median survival time, dose: 2.33 mg/kg/injection, schedule: Q01DX Z (sc), vehicle: sodium bicarbonate 155 % of control | endpoint: median survival time, dose: 2.5 mg/kg/injection, schedule: Q01DX Z (sc), vehicle: other 155 % of control | endpoint: median survival time, dose: 3.0 mg/kg/injection, schedule: Q01DX009 (ip), vehicle: saline with Tween-80 173 % of control | endpoint: median survival time, dose: 3.0 mg/kg/injection, schedule: Q01DX009 (sc), vehicle: other 179 % of control | endpoint: median survival time, dose: 3.0 mg/kg/injection, schedule: Q01DX009 (sc), vehicle: sodium bicarbonate 183 % of control | endpoint: median survival time, dose: 3.0 mg/kg/injection, schedule: Q01DX Z (ip), vehicle: other 150 % of control | endpoint: median survival time, dose: 3.0 mg/kg/injection, schedule: Q01DX Z (iv), vehicle: other 155 % of control | endpoint: median survival time, dose: 3.0 mg/kg/injection, schedule: Q01DX Z (oral), vehicle: other 170 % of control | endpoint: median survival time, dose: 3.25 mg/kg/injection, schedule: Q01DX Z (sc), vehicle: other 158 % of control | endpoint: median survival time, dose: 3.47 mg/kg/injection, schedule: Q01DX Z (sc), vehicle: other 150 % of control | endpoint: median survival time, dose: 3.5 mg/kg/injection, schedule: Q01DX Z (sc), vehicle: other 163 % of control | endpoint: median survival time, dose: 4.0 mg/kg/injection, schedule: Q01DX009 (ip), vehicle: saline with Tween-80 168 % of control | endpoint: median survival time, dose: 4.0 mg/kg/injection, schedule: Q01DX009 (ip), vehicle: saline 184 % of control | endpoint: median survival time, dose: 4.0 mg/kg/injection, schedule: Q01DX Z (sc), vehicle: other 150 % of control and 155 % of control | endpoint: median survival time, dose: 8.33 mg/kg/injection, schedule: Q01DX Z (oral), vehicle: other 150 % of control | endpoint: median survival time, dose: 65.0 mg/kg/injection, schedule: Q07DX Z (sc), vehicle: other 150 % of control | endpoint: median survival time, dose: 400.0 mg/kg/injection, schedule: Q01DX009 (ip), vehicle: sodium bicarbonate 158 % of control
inactive: endpoint: mean survival time, dose: 5.0 mg/kg/injection, schedule: Q01DX017 (sc), vehicle: other 124 % of control | endpoint: median survival time, dose: 0.1 mg/kg/injection, schedule: Q#A X Z (oral), vehicle: other 104 % of control | endpoint: median survival time, dose: 0.1 mg/kg/injection, schedule: Q#A X Z (sc), vehicle: other 122 % of control | endpoint: median survival time, dose: 0.16 mg/kg/injection, schedule: Q#A X Z (oral), vehicle: other 109 % of control | endpoint: median survival time, dose: 0.23 mg/kg/injection, schedule: Q#A X Z (sc), vehicle: other 122 % of control | endpoint: median survival time, dose: 0.25 mg/kg/injection, schedule: Q01DX Z (sc), vehicle: other 112 % of control and 116 % of control | endpoint: median survival time, dose: 0.27 mg/kg/injection, schedule: Q01DX Z (oral), vehicle: other 109 % of control | endpoint: median survival time, dose: 0.27 mg/kg/injection, schedule: Q#A X Z (oral), vehicle: other 122 % of control | endpoint: median survival time, dose: 0.3 mg/kg/injection, schedule: Q01DX Z (sc), vehicle: sodium bicarbonate 111 % of control | endpoint: median survival time, dose: 0.38 mg/kg/injection, schedule: Q01DX009 (ip), vehicle: sodium bicarbonate 108 % of control | endpoint: median survival time, dose: 0.39 mg/kg/injection, schedule: Q01DX Z (ip), vehicle: other 115 % of control | endpoint: median survival time, dose: 0.39 mg/kg/injection, schedule: Q01DX Z (iv), vehicle: other 105 % of control | endpoint: median survival time, dose: 0.39 mg/kg/injection, schedule: Q01DX Z (oral), vehicle: other 100 % of control | endpoint: median survival time, dose: 0.39 mg/kg/injection, schedule: Q02DX Z (sc), vehicle: other 111 % of control | endpoint: median survival time, dose: 0.45 mg/kg/injection, schedule: Q01DX Z (oral), vehicle: other 100 % of control | endpoint: median survival time, dose: 0.47 mg/kg/injection, schedule: Q01DX Z (oral), vehicle: other 111 % of control | endpoint: median survival time, dose: 0.48 mg/kg/injection, schedule: Q01DX Z (oral), vehicle: other 100 % of control | endpoint: median survival time, dose: 0.5 mg/kg/injection, schedule: Q01DX009 (ip), vehicle: sodium bicarbonate 112 % of control | endpoint: median survival time, dose: 0.65 mg/kg/injection, schedule: Q01DX Z (iv), vehicle: other 111 % of control | endpoint: median survival time, dose: 0.65 mg/kg/injection, schedule: Q01DX Z (oral), vehicle: other 105 % of control | endpoint: median survival time, dose: 0.65 mg/kg/injection, schedule: Q02DX Z (sc), vehicle: other 105 % of control | endpoint: median survival time, dose: 0.65 mg/kg/injection, schedule: Q## X Z (sc), vehicle: other 122 % of control | endpoint: median survival time, dose: 0.75 mg/kg/injection, schedule: Q01DX009 (ip), vehicle: sodium bicarbonate 113 % of control | endpoint: median survival time, dose: 0.76 mg/kg/injection, schedule: Q01DX Z (oral), vehicle: other 122 % of control | endpoint: median survival time, dose: 0.79 mg/kg/injection, schedule: Q01DX Z (oral), vehicle: other 105 % of control | endpoint: median survival time, dose: 1.08 mg/kg/injection, schedule: Q01DX Z (oral), vehicle: other 110 % of control | endpoint: median survival time, dose: 1.26 mg/kg/injection, schedule: Q#A X Z (oral), vehicle: other 118 % of control | endpoint: median survival time, dose: 1.31 mg/kg/injection, schedule: Q01DX Z (oral), vehicle: other 111 % of control | endpoint: median survival time, dose: 1.8 mg/kg/injection, schedule: Q## X Z (sc), vehicle: other 111 % of control | endpoint: median survival time, dose: 3.0 mg/kg/injection, schedule: Q01DX Z (ip), vehicle: sodium bicarbonate 105 % of control | endpoint: median survival time, dose: 3.0 mg/kg/injection, schedule: Q01DX Z (ip), vehicle: water 120 % of control | endpoint: median survival time, dose: 3.0 mg/kg/injection, schedule: Q## X Z (sc), vehicle: other 111 % of control | endpoint: median survival time, dose: 3.5 mg/kg/injection, schedule: Q03DX Z (oral), vehicle: other 100 % of control | endpoint: median survival time, dose: 3.5 mg/kg/injection, schedule: Q#A X Z (oral), vehicle: other 109 % of control | endpoint: median survival time, dose: 5.0 mg/kg/injection, schedule: Q01DX009 (sc), vehicle: sodium bicarbonate 116 % of control and 120 % of control | endpoint: median survival time, dose: 5.0 mg/kg/injection, schedule: Q01DX017 (sc), vehicle: other 122 % of control | endpoint: median survival time, dose: 5.0 mg/kg/injection, schedule: Q## X Z (sc), vehicle: other 111 % of control | endpoint: median survival time, dose: 5.83 mg/kg/injection, schedule: Q01DX Z (oral), vehicle: other 118 % of control | endpoint: median survival time, dose: 5.83 mg/kg/injection, schedule: Q03DX Z (oral), vehicle: other 100 % of control | endpoint: median survival time, dose: 8.33 mg/kg/injection, schedule: Q01DX Z (iv), vehicle: other 120 % of control | endpoint: median survival time, dose: 8.4 mg/kg/injection, schedule: Q## X Z (sc), vehicle: other 122 % of control | endpoint: median survival time, dose: 9.72 mg/kg/injection, schedule: Q01DX Z (oral), vehicle: other 118 % of control | endpoint: median survival time, dose: 14.0 mg/kg/injection, schedule: Q## X Z (sc), vehicle: other 122 % of control | endpoint: median survival time, dose: 16.2 mg/kg/injection, schedule: Q03DX Z (oral), vehicle: other 113 % of control | endpoint: median survival time, dose: 23.0 mg/kg/injection, schedule: Q01DX001 (sc), vehicle: other 122 % of control | endpoint: median survival time, dose: 23.0 mg/kg/injection, schedule: Q## X Z (sc), vehicle: other 122 % of control | endpoint: median survival time, dose: 108.0 mg/kg/injection, schedule: Q01DX001 (sc), vehicle: other 122 % of control | endpoint: median survival time, dose: 108.0 mg/kg/injection, schedule: Q07DX Z (sc), vehicle: other 122 % of control | endpoint: median survival time, dose: 180.0 mg/kg/injection, schedule: Q01DX001 (sc), vehicle: other 116 % of control
